Results taken from article PMC8309046 (Pharmaceutics, 2021).
Structures can show the parent of a compound that is named as a salt. Where two headings read alike, the source gives them in different places.

Legend:
[1] = target: T1, PptT (Mycobacterium tuberculosis, UniProt O33336); assay: LOPAC1280 single-point BpsA (indigoidine) end-point screen for PptT inhibitors; type: biochemical; conditions: for activity at 20 µM / % Activity in PptT Screen: single concentration (20 µM per Figure S4), 0.4 µM PptT, 0.6 µM apo-BpsA, 10 µM CoA, A590 relative to no-inhibitor positive controls
T1 sequence (O33336 whole entry): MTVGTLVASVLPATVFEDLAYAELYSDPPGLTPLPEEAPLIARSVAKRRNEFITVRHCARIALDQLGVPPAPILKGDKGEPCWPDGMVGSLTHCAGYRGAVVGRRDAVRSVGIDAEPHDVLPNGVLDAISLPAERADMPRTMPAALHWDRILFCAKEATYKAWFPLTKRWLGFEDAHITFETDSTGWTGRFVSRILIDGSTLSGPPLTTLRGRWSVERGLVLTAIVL

[2] = target: T1, PptT; assay: BpsA end-point dose-response assay of PptT inhibition (EC50); type: biochemical; conditions: for EC50: end-point assay, two-fold serial dilution from 40 µM, 0.4 µM PptT, 0.6 µM apo-BpsA, three independent replicates ± standard error
[3] = tested on: SARS-CoV-2 protease; conditions: LOPAC1280 screen, FRET-based reporter; cited from earlier work
[4] = target: T2, holo-BpsA (Streptomyces lavendulae, UniProt Q1MWN4); assay: Counter-screen against pre-activated holo-BpsA (indigoidine synthesis); type: biochemical; conditions: for Inhibition of holo-BpsA: re-screen at higher concentration of 40 µM; for inhibition at 40 µM: read-out: Inhibition of holo-BpsA; for Inhibition of indigoidine synthesis by holo-BpsA in LOPAC1280 counter-screen: 0.6 µM holo-BpsA, no PPTase, screening concentration
T2 construct: made in house; host or cells: E. coli BL21(DE3) ΔentD
T2 sequence (Q1MWN4 1-1282): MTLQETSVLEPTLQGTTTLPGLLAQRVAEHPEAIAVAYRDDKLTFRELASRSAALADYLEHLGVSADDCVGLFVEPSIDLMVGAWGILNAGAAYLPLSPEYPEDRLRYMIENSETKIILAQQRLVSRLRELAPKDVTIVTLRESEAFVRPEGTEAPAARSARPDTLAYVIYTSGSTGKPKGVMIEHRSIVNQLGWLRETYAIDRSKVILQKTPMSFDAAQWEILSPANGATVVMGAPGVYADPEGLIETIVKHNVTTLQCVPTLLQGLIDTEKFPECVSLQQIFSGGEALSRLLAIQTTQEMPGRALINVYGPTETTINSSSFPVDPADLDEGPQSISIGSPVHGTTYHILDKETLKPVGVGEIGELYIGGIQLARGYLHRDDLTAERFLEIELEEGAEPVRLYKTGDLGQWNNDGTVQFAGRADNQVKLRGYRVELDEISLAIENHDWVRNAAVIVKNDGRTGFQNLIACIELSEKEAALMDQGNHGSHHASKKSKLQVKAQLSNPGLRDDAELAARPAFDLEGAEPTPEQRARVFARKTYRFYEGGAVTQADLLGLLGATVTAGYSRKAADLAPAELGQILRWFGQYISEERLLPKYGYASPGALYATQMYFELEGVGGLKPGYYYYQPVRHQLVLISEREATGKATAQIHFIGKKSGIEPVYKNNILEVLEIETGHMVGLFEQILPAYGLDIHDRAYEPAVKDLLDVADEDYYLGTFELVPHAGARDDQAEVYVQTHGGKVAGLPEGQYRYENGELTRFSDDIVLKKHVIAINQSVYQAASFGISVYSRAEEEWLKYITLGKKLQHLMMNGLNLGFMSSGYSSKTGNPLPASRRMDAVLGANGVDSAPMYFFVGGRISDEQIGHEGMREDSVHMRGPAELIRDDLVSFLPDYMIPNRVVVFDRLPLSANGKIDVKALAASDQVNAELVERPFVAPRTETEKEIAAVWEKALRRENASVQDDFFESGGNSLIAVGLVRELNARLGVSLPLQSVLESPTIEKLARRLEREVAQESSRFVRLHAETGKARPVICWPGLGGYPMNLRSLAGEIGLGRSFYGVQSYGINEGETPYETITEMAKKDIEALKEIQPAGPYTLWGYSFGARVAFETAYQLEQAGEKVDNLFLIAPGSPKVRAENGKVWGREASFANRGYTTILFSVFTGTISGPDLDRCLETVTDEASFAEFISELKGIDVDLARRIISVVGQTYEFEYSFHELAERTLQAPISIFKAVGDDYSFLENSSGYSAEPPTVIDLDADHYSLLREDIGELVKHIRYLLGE
Description: The Sigma-Aldrich LOPAC^1280 collection was first diluted to a working stock of […] per compound. To screen the collection, 88 reactions at a time were established in columns 1–11 of a standard 96 well-plate. Each was prepared from 30 µL of reaction mix comprising 50 mM Tris-Cl (pH 8.0), 0.01% (v/v) Triton-X, 10 mM MgCl2, 5 mM ATP, 5 mM L-glutamine and 10 µM CoA. Next, a CyBio liquid handler was used to pin 2 µL of compound into columns 2–11 and 2 µL of DMSO into column 1. To screen for PptT inhibitors, 10 µL of PPTase mix comprising a freshly-prepared stock of 0.4 µM PptT and 50 mM Tris-Cl (pH 8.0) was added to wells A1–C1 and columns 2–11 (see Supplementary Figure S1). To initiate indigoidine synthesis, 10 µL of 0.6 µM apo-BpsA in 50 mM Tris-Cl (pH 8.0) was added to each well. To screen for holo-BpsA inhibitors, an equivalent screening format was established only using 0.6 µM holo-BpsA and with no PPTase mix added. Each plate was then shaken at 1000 rpm for 10 s and incubated at room temperature for 1 h. Indigoidine was then resolubilised by the addition of 200 µL DMSO and incubation at 37 °C with shaking at 200 rpm for 0.5 h. A Perkin Elmer Enspire plate reader was then used to record the absorbance readings at 590 nm. The Python package Pandas was used to process the data, which was then visualised using the Python package Seaborn.

[5] = tested on: PPTases; set-up: method as in PMID 20094656, PMID 21466506, PMID 33118808; conditions: cited from earlier work
[6] = target: T1, PptT; type: biochemical; conditions: kinetic assay, serial dilution 200 µM to 0.2 µM; 0.4 µM PptT, 0.6 µM apo-BpsA
[7] = tested on: M. tuberculosis PptT; set-up: method as in PMID 24963544; conditions: cited from earlier work
[8] = tested on: Sfp; set-up: method as in PMID 24192555; conditions: cited from earlier work

Compound | % Activity in PptT Screen [1] [%] | EC50 [2] [µM] | Hit as SARS-CoV-2 protease inhibitor [3] | further results
CC(=O)c1c(O)c(C)c(O)c(Cc2c(O)c3c(c(C(=O)/C=C/c4ccccc4)c2O)OC(C)(C)C=C3)c1O [Rottlerin] | – | – | – | activity at 20 µM [1]: 48%
N#C/C(=C\c1ccc(O)c(O)c1)C(=O)c1ccc(O)c(O)c1 [Tyrphostin AG 538] | 24 | 6.4 ± 0.7 | – | –
N=C1Sc2ccccc2C2=NCCCN12 [PD 404, 182] | 35 | – | strong protease inhibitors | –
CC(C)(C)c1ccc(S(=O)(=O)/C=C/C#N)cc1 [Bay 11-7085] | 10 | 7.4 ± 0.4 | strong protease inhibitors | –
NC(Cc1cc(O)c(O)cc1O)C(=O)O (racemic) [6-Hydroxy-DL-DOPA] | 26 | – | strong protease inhibitors | Inhibition of holo-BpsA [4]: less than 15%
Br.CCCN(CCC)C1CCc2cccc(O)c2C1 (stereo not shown) [8-hydroxy-DPAT hydrobromide] | – | – | – | Inhibitory activity on PptT in serial dilution (result in words) ([2]; two-fold serial dilutions (40 µM to 0.3 µM) in PptT/apo-BpsA reaction mix): no inhibitory activity was observed
O=Nc1ccc2oc(=O)ccc2c1 [6-Nitroso-1,2-benzopyrone] | 12 | 8.3 ± 1.7 | strong protease inhibitors | Activity in vitro against PPTases [5]: activity in vitro against numerous PPTases; Inhibition of holo-BpsA [4]: less than 15%; EC50 [6]: 4.4 ± 1.2 µM
CCN(CC)C(=S)SSC(=S)N(CC)CC [Disulfiram] | – | 6 ± 1.5 | strong protease inhibitors | activity at 20 µM [1]: 9%; inhibition at 40 µM [4]: < 15%
Cc1ccc(C(=O)Nc2ccc(S(=O)(=O)O)c3cc(S(=O)(=O)O)cc(S(=O)(=O)O)c23)cc1NC(=O)c1cccc(NC(=O)Nc2cccc(C(=O)Nc3cc(C(=O)Nc4ccc(S(=O)(=O)O)c5cc(S(=O)(=O)O)cc(S(=O)(=O)O)c45)ccc3C)c2)c1 [suramin hexasodium] | – | – | – | Inhibition of indigoidine synthesis by holo-BpsA in LOPAC1280 counter-screen [4]: inhibiting indigoidine synthesis
O=C1Nc2ccc(I)cc2/C1=C/c1cc(Br)c(O)c(Br)c1 [GW5074] | 43 | – | – | –
N#C/C(=C\c1ccc(O)c(O)c1)C(=O)NCCCNC(=O)/C(C#N)=C/c1ccc(O)c(O)c1 [Tyrphostin AG 537] | 35 | 5.9 ± 0.5 | – | –
O=C(O)C1=CC(=C(c2ccc(O)c(C(=O)O)c2)c2ccc(O)c(C(=O)O)c2)C=CC1=O [Aurintricarboxylic acid] | – | 4.8 ± 0.9 | strong protease inhibitors | activity at 20 µM [1]: 32%
CN(C)CC/C=C1/c2ccccc2Sc2ccc(Cl)cc21 [chlorprothixene hydrochloride] | – | – | – | Registered as inhibitor of PptT in primary screen (result in words) ([1]; LOPAC1280 primary screen): did not register as an inhibitor of PptT; Inhibition of indigoidine synthesis by holo-BpsA in LOPAC1280 counter-screen [4]: inhibiting indigoidine synthesis
CCCCCCCCCCC/C=C\C(C)(C)/C=C\CCCC(=O)O [7,7-Dimethyl-(5z,8z)-eicosadienoic acid] | 49 | – | – | Inhibition of holo-BpsA [4]: less than 15%
Tyrphostin AG 808 | 34 | – | – | –
C[n+]1cc2c3c(ccc2c2ccc4cc5c(cc4c21)OCO5)OCO3 [Sanguinarine chloride] | – | – | strong protease inhibitors | activity at 20 µM [1]: 44%; inhibition at 40 µM [4]: < 15%; Reported as inhibitor of M. tuberculosis PptT [7]: inhibitor; Reported as inhibitor of Sfp [8]: inhibitor
O=c1c2ccccc2[se]n1-c1ccccc1 [ebselen] | – | – | – | Inhibition of indigoidine synthesis by holo-BpsA in LOPAC1280 counter-screen [4]: inhibiting indigoidine synthesis
Br.CN=c1nc(-c2ccccc2)n(-c2ccccc2)s1 [SCH-202676 hydrobromide] | 0.7 | 5.9 ± 0.1 | – | Inhibition of holo-BpsA [4]: noticeably inhibitory
O=C(O)c1cc[c]([Hg][Cl])cc1 [4-chloromercuribenzoic acid] | – | – | – | Inhibition of indigoidine synthesis by holo-BpsA in LOPAC1280 counter-screen [4]: inhibiting indigoidine synthesis
COc1ccc2c(c1)CC[C@@H]1[C@@H]2CC[C@]2(C)[C@@H](NCCCCCCN3C(=O)C=CC3=O)CC[C@@H]12 [U-73122] | 44 | 8.1 ± 0.5 | strong protease inhibitors | –
COc1cc(/C=C(\C#N)C(=O)c2ccc(O)c(O)c2)cc(I)c1O [I-OMe-Tyrphostin AG 538] | 40 | – | – | –
Nc1c(S(=O)(=O)O)cc(Nc2ccc(Nc3nc(Cl)nc(Nc4cccc(S(=O)(=O)O)c4)n3)c(S(=O)(=O)O)c2)c2c1C(=O)c1ccccc1C2=O [Reactive Blue 2] | – | – | – | activity at 20 µM [1]: 38%
